This experiment deals with S1P1 (Homo sapiens, UniProt P21453). As to the kind of experiment: CNG cAMP Assay (Assay 1). In kind it is cell-based. More on the design: host or cells: HEK293 cells expressing the CNG channel. Here is the method: Frozen HEK293 cells expressing the CNG channel and S1P1 (BD Biosciences, San Jose, Calif.) were thawed and plated into the wells of a black, clear bottom, 384-well CellBind plate (Corning, Corning, N.Y.) at 14,000 cells per well. HEK293 cells expressing the CNG channel and CB1 (BD Biosciences) were cultured and plated under the same conditions. The cells were incubated for 16 h at 37° C. in complete DMEM medium (Invitrogen Carlsbad, Calif.) containing 10% FBS (HyClone Logan, Utah), 250 μg/mL geneticin (Invitrogen), and 1 μg/mL puromycin (Sigma-Aldrich, St. Louis, Mo.). A membrane potential dye (BD Biosciences) was added and the plates were incubated for 2-2.5 h at room temperature.
Test compounds were tested at maximum concentrations of 10 μM. Compounds were diluted in DMSO (10 concentration points, 3-fold each) and added to the assay plate at final DMSO concentrations of 1.8%. For each compound, there were duplicate assay plates and each assay plate had duplicate wells per concentration point. Test compounds were added to the cells in a DPBS solution containing 25 μM Ro 20-1724 (Sigma-Aldrich), 500 nM of the A2b receptor agonist NECA (Sigma-Aldrich) and 10 nM (EC95) of S1P (Avanti Alabaster, Ala.) and incubated for 90 min. The assay plate was read before compound addition (T0) and after the 90 min incubation (T90) using an EnVision plate reader (PerkinElmer, Waltham, Mass.) at an excitation wavelength of 350 nm and an emission wavelength of 590 nm. The T90/T0 ratio was determined for each concentration of the test compounds. The percent agonist activity was determined as [(test compound−DMSO alone control)/(NECA alone control−DMSO alone control)*100]. The percent activities were plotted against compound concentration to determine EC50 using XLFit (IDBS, Alameda, Calif.). The control used for calculating rEC50 in the S1P1 CNG agonist assay was DMSO.
Assay 1 is the CNG cAMP Assay as described in Biological Example 1. Assay 2a and 2b are the Tango™ β-arrestin Recruitment Assay in HEK293 and U2OS cells, respectively, as described in Biological Example 2. Assay 3a is the hS1P1R GTPγS Binding Assay as described in Biological Example 3. Assay 3b is the GTP-Eu Binding Assay as described in Biological Example 3. EC50's were measured unless otherwise noted. […] In the table, “nt” means the Compound was not tested and “no” means the compound was tested but had no measurable activity under the assay conditions employed.

[1] abbreviates: footnote 1: Relative EC50 was measured, read-out: Assay 1 Relative EC50.

Structures are written as SMILES. Read-outs that look alike come from different tables or passages of the source.

Chain of S1P1 (P21453 whole entry): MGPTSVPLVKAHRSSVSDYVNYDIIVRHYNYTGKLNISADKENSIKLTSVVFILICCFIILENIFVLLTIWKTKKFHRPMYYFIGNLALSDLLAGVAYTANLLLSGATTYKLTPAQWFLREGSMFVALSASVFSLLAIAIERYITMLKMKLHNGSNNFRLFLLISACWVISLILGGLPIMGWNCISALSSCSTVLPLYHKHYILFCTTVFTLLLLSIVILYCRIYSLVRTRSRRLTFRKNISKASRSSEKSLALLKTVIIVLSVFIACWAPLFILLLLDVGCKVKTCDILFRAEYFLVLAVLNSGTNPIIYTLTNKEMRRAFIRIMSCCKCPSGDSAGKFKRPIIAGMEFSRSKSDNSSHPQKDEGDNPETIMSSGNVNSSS

Regarding `C=CS(=O)(=O)Nc1ccc(-c2noc(-c3cn4cc(C(F)(F)F)cc(Cl)c4n3)n2)c(Cl)c1` [Example 128, N-(3-chloro-4-{5-[8-chloro-6-(trifluoromethyl)imidazo[1,2-a]pyridin-2-yl]-1,2,4-oxadiazol-3-yl}phenyl)ethenesulfonamide], the concentration giving a half-maximal response (EC50) (read-out: Assay 1 EC50) was 100 to 500 nM.
With `CS(=O)(=O)Nc1ccc(-c2noc(-c3cn4cc(C(F)(F)F)cc(Cl)c4n3)n2)c(F)c1` [Example 129, N-(4-{5-[8-chloro-6-(trifluoromethyl)imidazo[1,2-a]pyridin-2-yl]-1,2,4-oxadiazol-3-yl}-3-fluorophenyl)methanesulfonamide], for the setting “read-out: Assay 1 EC50”, the EC50 is 100 to 500 nM.
For the molecule `O=C(O)Cc1ccc(-c2noc(-c3cn4cc(C(F)(F)F)cc(Cl)c4n3)n2)c(Cl)c1` [Example 133, (3-chloro-4-{5-[8-chloro-6-(trifluoromethyl)imidazo[1,2-a]pyridin-2-yl]-1,2,4-oxadiazol-3-yl}phenyl)acetic acid], the EC50 under setting [1] was in the range of 1000 to 5000 nM.
In the case of `O=c1nc(-c2ccc(-c3noc(-c4cn5cc(C(F)(F)F)cc(Cl)c5n4)n3)c(Cl)c2)[nH]o1` [Example 134, 3-(3-chloro-4-{5-[8-chloro-6-(trifluoromethyl)imidazo[1,2-a]pyridin-2-yl]-1,2,4-oxadiazol-3-yl}phenyl)-1,2,4-oxadiazol-5(2H)-one], the EC50 (read-out: Assay 1 EC50) was 500 to 1000 nM.
As to `NC(=O)C(CC(=O)O)c1ccc(-c2noc(-c3cn4cc(C(F)(F)F)cc(Cl)c4n3)n2)c(Cl)c1` (centres unmarked) [Example 135, 4-amino-3-(3-chloro-4-{5-[8-chloro-6-(trifluoromethyl)imidazo[1,2-a]pyridin-2-yl]-1,2,4-oxadiazol-3-yl}phenyl)-4-oxobutanoic acid], the EC50 (read-out: Assay 1 EC50) was 100 to 500 nM.
In the case of `CCNC(CC(=O)O)c1ccc(-c2noc(-c3cn4cc(C(F)(F)F)cc(Cl)c4n3)n2)c(Cl)c1` (centres unmarked) [Example 137, 3-(3-chloro-4-{5-[8-chloro-6-(trifluoromethyl)imidazo[1,2-a]pyridin-2-yl]-1,2,4-oxadiazol-3-yl}phenyl)-3-(ethylamino)propanoic acid], the EC50 under setting [1] was 1000 to 5000 nM.
With `CS(=O)(=O)CCc1ccc(-c2noc(-c3cn4cc(C(F)(F)F)cc(Cl)c4n3)n2)c(Cl)c1` [Example 140, 8-chloro-2-(3-{2-chloro-4-[2-(methylsulfonyl)ethyl]phenyl}-1,2,4-oxadiazol-5-yl)-6-(trifluoromethyl)imidazo[1,2-a]pyridine], the EC50 (read-out: Assay 1 EC50) is ≤ 100 nM.
Still for that read-out and setting: the result for `FC(F)(F)c1cccc(-c2noc(-c3cn4cc(C(F)(F)F)cc(Cl)c4n3)n2)c1` [Example 143, 8-chloro-6-(trifluoromethyl)-2-{3-[3-(trifluoromethyl)phenyl]-1,2,4-oxadiazol-5-yl}imidazo[1,2-a]pyridine] reads 500 to 1000 nM; that for `OCCN1CCC(Oc2cc(Cl)c(-c3noc(-c4cn5cc(C(F)(F)F)cc(Cl)c5n4)n3)cc2F)C1` (centres unmarked) [Example 144, 2-{3-[(5-chloro-4-{5-[8-chloro-6-(trifluoromethyl)imidazo[1,2-a]pyridin-2-yl]-1,2,4-oxadiazol-3-yl}-2-fluorophenyl)oxy]pyrrolidin-1-yl}ethanol], 100 to 500 nM.
Turning to `Fc1ccc(-c2noc(-c3cn4cc(C(F)(F)F)cc(Cl)c4n3)n2)c(F)c1` [Example 146, 8-chloro-2-[3-(2,4-difluorophenyl)-1,2,4-oxadiazol-5-yl]-6-(trifluoromethyl)imidazo[1,2-a]pyridine], the concentration giving a half-maximal response (EC50) (read-out: Assay 1 EC50) was 500 to 1000 nM.
With `Fc1cccc(Cl)c1-c1noc(-c2cn3cc(C(F)(F)F)cc(Br)c3n2)n1` [Example 147, 8-bromo-2-[3-(2-chloro-6-fluorophenyl)-1,2,4-oxadiazol-5-yl]-6-(trifluoromethyl)imidazo[1,2-a]pyridine], the EC50 (read-out: Assay 1 EC50) is 100 to 500 nM.
Still for that read-out and setting: the result for `CS(=O)(=O)c1cc(Cl)c2nc(-c3nc(-c4cc(F)c(CCC(=O)O)cc4Cl)no3)cn2c1` [Example 148, 3-(5-chloro-4-{5-[8-chloro-6-(methylsulfonyl)imidazo[1,2-a]pyridin-2-yl]-1,2,4-oxadiazol-3-yl}-2-fluorophenyl)propanoic acid] reads ≤ 100 nM; that for `FC(F)(F)c1cc(Cl)c2nc(-c3nc(-c4ccc5[nH]ccc5c4)no3)cn2c1` [Example 151, 8-chloro-2-[3-(1H-indol-5-yl)-1,2,4-oxadiazol-5-yl]-6-(trifluoromethyl)imidazo[1,2-a]pyridine], 100 to 500 nM.
Regarding `Cc1cc(F)ccc1-c1noc(-c2cn3cc(C(F)(F)F)cc(Cl)c3n2)n1` [Example 152, 8-chloro-2-[3-(4-fluoro-2-methylphenyl)-1,2,4-oxadiazol-5-yl]-6-(trifluoromethyl)imidazo[1,2-a]pyridine], where the note is “read-out: Assay 1 EC50”, the concentration for a half-maximal effect (EC50) is ≤ 100 nM.
Take `Fc1cccc(-c2noc(-c3cn4cc(C(F)(F)F)cc(Cl)c4n3)n2)c1Cl` [Example 157, 8-chloro-2-[3-(2-chloro-3-fluorophenyl)-1,2,4-oxadiazol-5-yl]-6-(trifluoromethyl)imidazo[1,2-a]pyridine]: the EC50 (read-out: Assay 1 EC50) is 100 to 500 nM.
Consider `O=C(O)c1cc2cc(-c3noc(-c4cn5cc(C(F)(F)F)cc(Cl)c5n4)n3)ccc2o1` [Example 158, 5-{5-[8-chloro-6-(trifluoromethyl)imidazo[1,2-a]pyridin-2-yl]-1,2,4-oxadiazol-3-yl}-1-benzofuran-2-carboxylic acid], for which the concentration for a half-maximal effect (EC50) under setting [1] was in the range of 1000 to 5000 nM.
Consider `FC(F)(F)c1cc(Cl)c2nc(-c3nc(-c4cccc5[nH]ccc45)no3)cn2c1` [Example 162, 8-chloro-2-[3-(1H-indol-4-yl)-1,2,4-oxadiazol-5-yl]-6-(trifluoromethyl)imidazo[1,2-a]pyridine], for which, for the setting “read-out: Assay 1 EC50”, the half-maximal effective concentration (EC50) is ≤ 100 nM.
As to `Fc1cccc(Cl)c1-c1noc(-c2cn3cc(C(F)(F)F)cc(Cl)c3n2)n1` [Example 163, 8-chloro-2-[3-(2-chloro-6-fluorophenyl)-1,2,4-oxadiazol-5-yl]-6-(trifluoromethyl)imidazo[1,2-a]pyridine], the 50% effective concentration (EC50) (read-out: Assay 1 EC50) is 100 to 500 nM.
As for `FC(F)(F)c1cc(Cl)c2nc(-c3nc(-c4ccc5[nH]cnc5c4)no3)cn2c1` [Example 164, 5-{5-[8-chloro-6-(trifluoromethyl)imidazo[1,2-a]pyridin-2-yl]-1,2,4-oxadiazol-3-yl}-1H-benzimidazole], the 50% effective concentration (EC50) (read-out: Assay 1 EC50) was 100 to 500 nM.
Turning to `FC(F)(F)c1cc(Cl)c2nc(-c3nc(-c4ccccc4C(F)(F)F)no3)cn2c1` [Example 165, 8-chloro-6-(trifluoromethyl)-2-{3-[2-(trifluoromethyl)phenyl]-1,2,4-oxadiazol-5-yl}imidazo[1,2-a]pyridine], under “read-out: Assay 1 EC50”, the EC50 lay within 100 to 500 nM.
With `Fc1ccc(-c2noc(-c3cn4cc(C(F)(F)F)cc(Cl)c4n3)n2)c(Br)c1` [Example 168, 2-[3-(2-bromo-4-fluorophenyl)-1,2,4-oxadiazol-5-yl]-8-chloro-6-(trifluoromethyl)imidazo[1,2-a]pyridine], for the setting “read-out: Assay 1 EC50”, the 50% effective concentration (EC50) was ≤ 100 nM.
Consider `O=C(O)c1cc2cc(-c3noc(-c4cn5cc(C(F)(F)F)cc(Cl)c5n4)n3)ccc2[nH]1` [Example 169, 5-{5-[8-chloro-6-(trifluoromethyl)imidazo[1,2-a]pyridin-2-yl]-1,2,4-oxadiazol-3-yl}-1H-indole-2-carboxylic acid], for which, under setting [1], the 50% effective concentration (EC50) is 5000 to 10000 nM.
In the case of `CC(CC(N)=O)c1ccc(-c2noc(-c3cn4cc(C(F)(F)F)cc(Cl)c4n3)n2)c(Cl)c1` (centres unmarked) [Example 170, 3-(3-chloro-4-{5-[8-chloro-6-(trifluoromethyl)imidazo[1,2-a]pyridin-2-yl]-1,2,4-oxadiazol-3-yl}phenyl)butanamide], for the setting “read-out: Assay 1 EC50”, the EC50 was ≤ 100 nM.
As to `NC(=O)Cn1ccc2c(-c3noc(-c4cn5cc(C(F)(F)F)cc(Cl)c5n4)n3)cccc21` [Example 174, 2-(4-{5-[8-chloro-6-(trifluoromethyl)imidazo[1,2-a]pyridin-2-yl]-1,2,4-oxadiazol-3-yl}-1H-indol-1-yl)acetamide], the concentration for a half-maximal effect (EC50) (read-out: Assay 1 EC50) is ≤ 100 nM.
On to `O=C(Cn1ccc2c(-c3noc(-c4cn5cc(C(F)(F)F)cc(Cl)c5n4)n3)cccc21)NCCO` [Example 175, 2-(4-{5-[8-chloro-6-(trifluoromethyl)imidazo[1,2-a]pyridin-2-yl]-1,2,4-oxadiazol-3-yl}-1H-indol-1-yl)-N-(2-hydroxyethyl)acetamide], for which the concentration giving a half-maximal response (EC50) (read-out: Assay 1 EC50) was ≤ 100 nM.
As to `FC(F)(F)c1ccc(-c2noc(-c3cn4cc(C(F)(F)F)cc(Cl)c4n3)n2)c(Cl)c1` [Example 183, 8-chloro-2-{3-[2-chloro-4-(trifluoromethyl)phenyl]-1,2,4-oxadiazol-5-yl}-6-(trifluoromethyl)imidazo[1,2-a]pyridine], the EC50 (read-out: Assay 1 EC50) lay in the range of 500 to 1000 nM.

Usually EC50 stands for the midpoint of the concentration-response curve.

Values taken from patent publication US20100160369A1, “S1P1 Agonists and Methods of Making And Using” (EXELIXIS, INC., priority 2008, published 2010).
